From US12576129B2, “Anthelmintic compositions and methods” (priority 2016, dated 2026)
In brackets after ≈: the same amount, converted by molar mass. Read-outs that look alike come from different tables or passages of the source.

How the values were obtained:
[1] = system: Ancylostoma ceylanicum hookworms; conditions: cited from earlier work; for % Parasite reduction: A. ceylanicum infections in hamsters
[2] = system: BaCC; test: Minimum inhibitory concentration of terpenes against BaCC (broth microdilution); format: cell-based; conditions: Bacillus thuringiensis; 24 h at 30° C. in LB; no absorbance increase; read-out: MIC μg/mL (100)
Protocol: Three terpenes were tested against BaCC including: carvacrol, geraniol and farnesol, by using the broth microdilution method as described in Agaisse and Lereclus, J. Bacteriol. 176, 4734-4741, 1994 and Agaisse and Lereclus, Mol. Microbiol. 13, 97-107, 1994 with some modifications. Briefly, BaCC from a single colony was grown in 5 mL of LB medium supplemented with 10 μg/mL erythromycin+200 μg/mL kanamycin overnight (O.D. (600) of 4.8, 2.3×10^7 CFU/mL). Terpene solutions were prepared at 1 mg/mL in LB. One hundred μL of two-fold serial dilutions of each terpene in LB were prepared in 96-well microtiter plates over the range of 1000 to 3.9 μg/mL in triplicate. LB without terpenes was used as a negative control. BaCC culture was diluted 100 times, and 100 μL of BaCC culture was added to the wells. Absorbance at 600 nm was recorded before and after the incubation to monitor bacterial growth. The MICs were determined after incubation for 24 h at 30° C. without shaking.

[3] = system: BaCC; test: Time to kill: CFU/mL of BaCC after terpene treatment; format: cell-based, Bacillus thuringiensis
Protocol: In order to determine which terpene kills BaCC in the shortest amount of time, we incubated 5 mL of BaCC culture with three terpenes at 1 mg/mL at 4° C. for 1, 2, 3 and 5 hours. No terpene control and no bacteria controls were carried out simultaneously. After incubation with terpenes, samples were centrifuged and the pellets were washed with 5 mL of 1M NaCl once and 5 mL of sterile distilled water twice in order to remove the terpenes. The pellets were re-suspended in the original volume and plated on LB agar with kanamycin and erythromycin. Plates were incubated overnight at 30° C.; the next day, the number of colonies on the plates were enumerated and colony forming units (CFU)/mL calculated.
To assess terpene killing at shorter time points, BaCC culture was grown in 3× LB for 48 h as described above and 60 ml of cultures were aliquoted in sterile tubes. Carvacrol and geraniol were added to the final concentration of 1 mg/mL, and the tubes were placed on a rotator at 4° C. for 15 minutes. The negative control was prepared using sterile water instead of terpenes. At the end of the incubation period, the tubes were centrifuged at 2000× g for 10 minutes and pellets washed with 60 ml of 1 M NaCl once and washed with 60 mL of sterile distilled water twice. Pellets were re-suspended in 1.2 mL of sterile distilled water to concentrate the culture 50 times. Concentrated terpene treated and control samples were plated on LB agar plates containing kanamycin and erythromycin and incubated overnight at 30° C. The number of colonies were counted the next day and CFU/mL calculated for each time point.

[4] = system: Ancylostoma ceylanicum hookworms; test: A. ceylanicum hookworm curative experiment in Syrian hamsters (worm burdens, fecal egg counts); format: in vivo
Protocol: Studies of Ancylostoma ceylanicum hookworms in Syrian hamsters were carried out as previously described (Hu, Y., et al. PLoS One, 8, e70702, 2013; Hu, Y., et al. Appl Environ Microbiol, 79, 5527-5532, 2013). Briefly, 4-6 week old male hamsters were infected with 150 infectious third staged larvae per os. On day 17 post-infection, an overnight collection of stool is taken and fecal egg counts (FECs) taken the next day. The hamsters are assigned to groups based on FEC so that there is roughly the same level of infection (same average egg per gram of feces or EPG) in all groups. On day 18 post-infection, the hamsters are weighed for dosing purposes and then gavaged with treatments as described in each experiment. On day 21 post-infection, another overnight collection of stool is taken for FECs. On day 22 post-infection, the animals were euthanized. Total hookworms in the small intestine were counted and EPGs calculated.
For all experiments involving cimetidine, hamsters or mice were pre-gavaged with 200 μL of an 8.75% cimetidine solution 15 minutes prior to therapeutic treatment (Stepek, G., et al. Parasitology, 134, 103-112, 2007).
For in vivo curative experiments, male hamsters were infected per os with 150 A. ceylanicum infectious larvae. On day 17 postinoculation (p.i.), a fecal sample was collected from each hamster, and the number of eggs was counted using the modified McMaster technique (13). On the basis of these fecal egg counts, the hamsters were segregated to ensure that the groups (control and treatment) had roughly equivalent infection levels. […] The hamsters were sacrificed on day 22 p.i., and intestinal parasite burdens were determined as described previously (14). The one-tailed Mann-Whitney test was performed to compare the two groups for significance in the experiment using a dose of 10 mg/kg of body weight (data were calculated and plotted using Prism 5 [GraphPad Software Inc., La Jolla, CA]). […]

[5] = system: Ancylostoma caninum; test: Ancylostoma caninum hookworm infection in dogs (fecal egg count, capsule endoscopy); format: in vivo
Protocol: Two beagles were inoculated per os with 1000 Ancylostoma caninum larvae. Forty one days post-infection, stool was collected for determination of fecal egg loads and the dog intestines were imaged using capsule endoscopy to count hookworms (Lee, A., et al. Int. J. Parasitol. 41, 1377-1383, 2011). One dose of Cry5B SCL (˜40 mg/kg) was given by gavage on each of day 42 and 44 post-infection. On day 49 post-infection a final fecal egg count was taken and capsule endoscopy repeated for final hookworm counts.

[6] = system: Heligmosomoides polygyrus; test: Heligmosomoides polygyrus infection in STAT6-/- mice; format: in vivo; conditions: immunosuppressed mice lacking STAT6
From the text: Such a result is not surprising given that Cry5B directly intoxicates STH parasites in vitro. This is not true of all anthelmintics, e.g., DEC and in some cases ivermectin, for which it appears that involvement of the immune system is important for their mechanism of action. To confirm that the immune system is not essential for Cry5B action, STAT6−/− mice were infected with Heligmosomoides polygyrus STH parasites. STAT6 is required for the TH2 response required for normal expulsion of STH parasites.

[7] = Average of dogs (n = 2), 40 mg/kg
[8] = dogs (n = 2), post- vs pre-treatment, 40 mg/kg

CCCSc1ccc2nc(NC(=O)OC)[nH]c2c1 [Albendazole, albendazole]
% Parasite reduction ([1]; 1.25 mg/kg): 88% | reduction of A. ceylanicum burdens ([1]; hamsters, 1.25-mg/kg (4.7 μmol/kg) dose): 88% | dose required to clear the same infection ([1]; in vivo): 5 mg/kg

CC(C)=CCCC(C)=CCCC(C)=CCO [Farnesol, farnesol]
MIC [2]: 500 µg/mL (≈ 2250 µM) | CFU/ml (1 mg/mL terpene treatment for time indicated) ([3]; 1 h at 4° C.): 1.00 × 10^7 CFU/ml | CFU/ml (1 mg/mL terpene treatment for time indicated) ([3]; 3 h at 4° C.): 1.30 × 10^5 CFU/ml | CFU/ml (1 mg/mL terpene treatment for time indicated) ([3]; 5 h at 4° C.): 0 CFU/ml | CFU/ml (1 mg/mL terpene treatment for time indicated) ([3]; time 0): 2.31 × 10^7 CFU/ml

CC(C)=CCC/C(C)=C/CO [Geraniol, geraniol]
MIC [2]: 500 µg/mL (≈ 3240 µM) | CFU/ml (1 mg/mL terpene treatment for time indicated) ([3]; 15 min at 4° C., culture concentrated 50 times (50X conc.) before plating): 100 CFU/ml | CFU/ml (1 mg/mL terpene treatment for time indicated) ([3]; 1 h at 4° C.): 0 CFU/ml | CFU/ml (1 mg/mL terpene treatment for time indicated) ([3]; 3 h at 4° C.): 0 CFU/ml | CFU/ml (1 mg/mL terpene treatment for time indicated) ([3]; 5 h at 4° C.): 0 CFU/ml | CFU/ml (1 mg/mL terpene treatment for time indicated) ([3]; time 0): 2.31 × 10^7 CFU/ml

c1ccc([C@H]2CN3CCSC3=N2)cc1 [Levamisole, levamisole]
% Parasite reduction ([1]; 10 mg/kg): 60% | reduction of A. ceylanicum burdens ([1]; hamsters, 10-mg/kg dose): 60%

CN1CCCN=C1/C=C/c1cccs1 [Pyrantel, pyrantel]
% Parasite reduction ([1]; 10 mg/kg): 87% | reduction of A. ceylanicum burdens ([1]; hamsters, 10-mg/kg dose): 87%

C/C(=N/c1ccc(/N=C/c2ccc(/C=N/c3ccc(/N=C(/C)N(C)C)cc3)cc2)cc1)N(C)C [Tribendimidine, tribendimidine]
% Parasite reduction ([1]; 10 mg/kg): 75% | reduction of A. ceylanicum burdens ([1]; hamsters, 10-mg/kg dose): 75%

B1: Cry5B: Bacillus thuringiensis crystal (Cry) protein Cry5B, SEQ ID NO:1; purified full-length protein (protein, listed as Bacillus thuringiensis)
chain: MATINELYPVPYNVLAHPIKEVDDPYSWSNLLKGIQEGWEEWGKTGQKKLFEDHLTIAWNLYKTGKLDYFALTKASISLIGFIPGAEAAVPFINMFVDFVWPKLFGANTEGKDQQLFNAIMDAVNKMVDNKFLSYNLSTLNKTIEGLQGNLGLFQNAIQVAICQGSTPERVNFDQNCTPCNPNQPCKDDLDRVASRFDTANSQFTQHLPEFKNPWSDENSTQEFKRTSVELTLPMYTTVATLHLLLYEGYIEFMTKWNFHNEQYLNNLKVELQQLIHSYSETVRTSFLQFLPTLNNRSKSSVNAYNRYVRNMTVNCLDIAATWPTFDTHNYHQGGKLDLTRIILSDTAGPIEEYTTGDKTSGPEHSNITPNNILDTPSPTYQHSFVSVDSIVYSRKELQQLDIATYSTNNSNNCHPYGLRLSYTDGSRYDYGDNQPDFTTSNNNYCHNSYTAPITLVNARHLYNAKGSLQNVESLVVSTVNGGSGSCICDAWINYLRPPQTSKNESRPDQKINVLYPITETVNKGTGGNLGVISAYVPMELVPENVIGDVNADTKLPLTQLKGFPFEKYGSEYNNRGISLVREWINGNNAVKLSNSQSVGIQITNQTKQKYEIRCRYASKGDNNVYFNVDLSENPFRNSISFGSTESSVVGVQGENGKYILKSITTVEIPAGSFYVHITNQGSSDLFLDRIEFVPKIQFQFCDNNNLHCDCNNPVDTDCTFCCVCTSLTDCDCNNPRGLDCTLCCQVENQLPSFVTLTDLQNITTQVNALVASSEHDTLATDVSDYEIEEVVLKVDALSGEVFGKEKKALRKLVNHTKRLSKARNLLIGGNFDNLDAWYRGRNVVNVSDHELFKSDHVLLPPPTLYSSYMFQKVEESKLKANTRYTVSGFIAHAEDLEIVVSRYGQEVKKVVQVPYGEAFPLTSRGAICCPPRSTSNGKPADPHFFSYSIDVGTLDVEANPGIELGLRIVERTGMARVSNLEIREDRPLKKNELRNVQRAARNWRTAYDQERAEVTALIQPVLNQINALYENEDWNGAIRSGVSYHDLEAIVLPTLPKLNHWFMSDMLGEQGSILAQFQEALDRAYTQLEESTILHNGHFTTDAANWTIEGDAHHAILEDGRRVLRLPDWSSSVSQTIEIENFDPDKEYQLVFHAQGEGTVSLQHGEEGEYVETHPHKSANFTTSHRQGVTFETNKVTVEITSEDGEFLVDHIALVEAPLPTDDQSSDGNTTSNTNSNTSMNNNQ
modifications: source = /note="Bacillus thuringiensis pesticidal crystal (Cry)"
% Parasite reduction ([4]; A. ceylanicum infections in hamsters, 10 mg/kg, This Example): 93% | efficacy after pre-exposure to two doses of Cry5B prior to infection ([4]; hamsters): not altered | effect of pre-neutralization of stomach acid on efficacy ([4]; hamsters pre-gavaged with cimetidine (and NaHCO3) before treatment): improved | hookworm burden reduction ([1]; hamsters, purified protein at 10 mg/kg, previously published data (ref 14)): 65% | Fecal Egg Count Pre-Treatment ([5]; Average of dogs (n = 2)): 12581 EPG of Feces | Hookworm Burden Pre-Treatment ([5]; Average of dogs (n = 2)): 70 | Fecal Egg Count Post-Treatment [5, 7]: 1081.5 EPG of Feces | Hookworm Burden Post-Treatment [5, 7]: 3.5 | Hookworm Burden Pre-Treatment ([5]; Dog 1, capsule endoscopy, day 41 post-infection): 84 | Hookworm Burden Post-Treatment ([5]; Dog 1, capsule endoscopy, day 49, ~40 mg/kg on days 42 and 44): 4 | Fecal Egg Count Pre-Treatment ([5]; Dog 1, day 41 post-infection): 15750 EPG of Feces | Fecal Egg Count Post-Treatment ([5]; Dog 1, day 49 post-infection, ~40 mg/kg by gavage on days 42 and 44): 1590 EPG of Feces | Hookworm Burden Pre-Treatment ([5]; Dog 2, capsule endoscopy, day 41 post-infection): 56 | Hookworm Burden Post-Treatment ([5]; Dog 2, capsule endoscopy, day 49, ~40 mg/kg on days 42 and 44): 3 | Fecal Egg Count Pre-Treatment ([5]; Dog 2, day 41 post-infection): 9412 EPG of Feces | Fecal Egg Count Post-Treatment ([5]; Dog 2, day 49 post-infection, ~40 mg/kg by gavage on days 42 and 44): 573 EPG of Feces | % Reduction of Fecal Egg Count [5, 8]: 91.4% | % Reduction of Hookworm Burden [5, 8]: 95% | efficacy against A. caninum in dogs ([5]; ~40 mg/kg by gavage on days 42 and 44 post-infection): highly effective | efficacy against H. polygyrus [6]: effective
